Broadly, the EC50 is the concentration needed to bring the measured effect to its halfway point. What is called IC50 is the concentration needed to halve the response being measured. A word on the Cmax: it is the peak of the concentration-time curve.

Data on 2 compounds can be found in patent US20250186408A1, “TREATMENT OF PHARMACORESISTANT EPILEPSY” (Katholieke Universiteit Leuven, priority 2021, published 2025).

Structures are written as SMILES. Like-named read-outs stand apart in the source and are kept apart here. Some results are limits rather than exact numbers.

For data set [1], the target named is ADRB1 (Homo sapiens, UniProt P08588). Nature of the data set: cAMP ADRB1 Agonist. As to conditions: for Emax: read-out: Max response. The format is cell-based. On the procedure:
(§1) cAMP Hunter cell lines were expanded from freezer stocks. […] For Gi agonist determination, cells were incubated with sample in the presence of EC80 forskolin to induce response. For both conditions, media was aspirated from cells and replaced with 15 μL 2:1 HBSS/10 mM HEPES:cAMP XS+ Ab reagent. […] 5 μL of 4× sample was added to cells and incubated at 37° C. or room temperature (RT) for 30 or 60 min. Final assay vehicle concentration was 1%. […] Media was aspirated from cells and replaced with 10 μL 1:1 HBSS/HEPES:cAMP XS+ Ab reagent. […] For Gi coupled GPCRs, EC80 forskolin was included. […] Compound activity was analyzed using CBIS data analysis suite (ChemInnovation, CA).

Data set [2] addresses ADRB2 (Homo sapiens, UniProt P07550). As to the kind of experiment: cAMP ADRB2 Agonist. In kind it is cell-based. The conditions noted are these: for Emax: read-out: Max response. The protocol:
as §1

The target in data set [3] is NMDAR (1A/2B) (Homo sapiens, UniProt Q05586+Q13224). As to the kind of experiment: Ion Channel NMDAR (1A/2B) Blocker. The format is cell-based. The conditions noted are these: for Emax: Ion Channel NMDAR (1A/2B) Blocker, read-out: Max response.
The target in data set [4] is T1, COX2 (Homo sapiens, UniProt P35354).
T1 construct: purchased BPS Bioscience
T1 sequence (P35354 18-604): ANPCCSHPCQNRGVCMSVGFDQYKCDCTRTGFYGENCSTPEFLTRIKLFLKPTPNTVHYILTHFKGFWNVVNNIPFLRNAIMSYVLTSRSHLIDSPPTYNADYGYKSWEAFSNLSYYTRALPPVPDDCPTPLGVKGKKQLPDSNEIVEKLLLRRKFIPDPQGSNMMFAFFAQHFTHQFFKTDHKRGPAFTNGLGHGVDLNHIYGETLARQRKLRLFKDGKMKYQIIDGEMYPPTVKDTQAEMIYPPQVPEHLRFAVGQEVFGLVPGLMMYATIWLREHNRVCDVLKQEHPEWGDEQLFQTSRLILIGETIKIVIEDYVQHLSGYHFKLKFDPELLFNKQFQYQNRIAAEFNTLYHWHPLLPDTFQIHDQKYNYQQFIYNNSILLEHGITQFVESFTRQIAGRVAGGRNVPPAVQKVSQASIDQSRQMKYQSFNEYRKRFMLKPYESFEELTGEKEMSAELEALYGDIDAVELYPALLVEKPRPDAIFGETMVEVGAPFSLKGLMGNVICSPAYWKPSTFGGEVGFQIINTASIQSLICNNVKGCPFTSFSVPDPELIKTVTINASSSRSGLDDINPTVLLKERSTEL
As to the kind of experiment: Enzymatic COX2 Inhibitor. The format is biochemical. As to conditions: for IC50: read-out: RC50, result type IC50; for Emax: read-out: Max response. The protocol: Enzyme preparations were sourced from various vendors-AChE (R&D Systems), COX1 and COX2 (BPS Bioscience), MAOA (Sigma), PDE3A and PDE4D2 (Signal Chem). AChE: enzyme and test compound were pre-incubated for 15 min at RT before substrate addition. Acetylthiocholine and DTNB were added and incubated at RT for 30 min. Signal was detected by measuring absorbance at 405 nm. COX1 and COX2: enzyme stocks were diluted in assay buffer (40 mM Tris-HCl, 1×PBS, 0.5 mM Phenol, 0.01% Tween 20 and 10 nM Hematin) and allowed to equilibrate with compounds at RT for 30 min (binding incubation). Arachidonic acid (1.7 μM) and Ampliflu Red (2.5 μM) were prepared and dispended into a reaction plate. Plates were read immediately on a fluorimeter with the emission detection at 590 nm and excitation wavelength 544 nm. MAOA: enzyme and test compound were pre-incubated for 15 min at 37° C. before substrate addition. The reaction was initiated by addition of kynuramine and incubated at 37° C. for 30 min. The reaction was terminated by addition of NaOH. The amount of 4-hydroquinoline formed was determined through spectrofluorometric readout with the emission detection at 380 nm and excitation wavelength 310 nm. PDE3A and PDE4D2: enzyme and test compound were pre-incubated for 15 min at RT before substrate addition. cAMP substrate (at a concentration equal to EC80) was added and incubated at RT for 30 min. Enzyme reaction was terminated by addition of 9 mM IBMX. Signal was detected using the HitHunter® cAMP detection kit. Microplates were transferred to a PerkinElmer Envision™ instrument and read out as described for each assay. […] For enzyme activity assays, percentage inhibition was calculated using the following equation: […]

A short description of data set [5]: in vivo. The conditions noted are these: male, NMRI, mouse, ip, 300 mg/kg.
Experimental: (§2) After the treatment period, blood samples were drawn from the tail veins, collected in Greiner MiniCollect K2EDTA tubes, and centrifuged twice for 5 min at 15,000 g to obtain plasma samples. Three volumes of acetonitrile were added to one volume of plasma to precipitate out the proteins. The samples were vortexed for 20 s and placed on ice. Immediately after, they were centrifuged at 5,000 g for 10 min and again at 10,000 g for 2 min. The resulting supernatants were transferred to Eppendorf tubes and centrifuged for 2 min at 10,000 g. Finally, the supernatants were collected for analysis by LC-MS/MS to determine the targeted compound concentration. Percentage recovery was determined as follows: known concentrations of the compound were spiked into the blank plasma and acetonitrile was added (3:1 ratio) to precipitate out the proteins. Samples were vortexed for 20 s and placed on ice. The resulting supernatants were isolated via centrifugation as described above. The targeted compounds were identified using LC-MS/MS to detect their characteristic ions. Plasma concentrations at each point were plotted as a function of time.
(§3) Brain samples were collected at the same time points as described for blood samples. Male NMRI mice were overdosed with dolethal via i.p. administration. Mice were perfused with 0.9% saline and brains were collected in Eppendorf tubes. Brains were weighed, whereafter 400 μL of acetonitrile was added to the samples. […] Homogenized samples were centrifuged at 5,000 g for 10 min and again at 10,000 g for 2 min. The resulting supernatants were transferred to Eppendorf tubes and centrifuged for 2 min at 10,000 g. Finally, the supernatants were collected for analysis by LC-MS/MS to determine the targeted compound concentration in the brain tissue.
(§4) The compound concentrations in mouse plasma and brain were determined by LC-MS/MS.
The target of data set [6] is T2, CHRM2 (Homo sapiens, UniProt P08172).
T2 sequence (P08172 1-466): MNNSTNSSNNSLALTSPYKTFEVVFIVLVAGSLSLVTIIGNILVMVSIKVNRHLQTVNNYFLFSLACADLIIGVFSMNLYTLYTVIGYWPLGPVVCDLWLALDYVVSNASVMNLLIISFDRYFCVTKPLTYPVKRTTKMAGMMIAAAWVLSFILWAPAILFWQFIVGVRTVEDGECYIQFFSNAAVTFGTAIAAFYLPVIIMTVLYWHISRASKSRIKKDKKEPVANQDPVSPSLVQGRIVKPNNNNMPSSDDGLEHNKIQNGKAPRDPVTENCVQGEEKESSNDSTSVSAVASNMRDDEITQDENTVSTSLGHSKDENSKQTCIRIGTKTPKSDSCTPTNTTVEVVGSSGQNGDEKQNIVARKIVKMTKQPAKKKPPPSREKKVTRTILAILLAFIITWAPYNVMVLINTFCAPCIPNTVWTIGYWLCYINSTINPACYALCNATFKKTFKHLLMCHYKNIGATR
Nature of the data set: cAMP CHRM2 Agonist. The conditions noted are these: for Emax: read-out: Max response.
Experimental: In vitro pharmacological profiling of compounds was done against 78 functional assays for 47 common off-targets (30) by Eurofins DiscoverX Corporation (Fremont, CA, USA) using their SAFETYscan E/IC50 ELECT service (Cat Ref 87-1003DR, Safety47 Panel Dose Response). […] Compounds were tested in a range of 10 concentrations, following a 3-fold serial dilution, starting from 10 μM. The assays were performed utilizing the PathHunter enzyme fragment complementation (EFC) technology, FLIPR®-based cellular screening assays, and KINOMEscan kinase binding assays.
cAMP Hunter cell lines were expanded from freezer stocks. Prior to testing, cells were seeded in a total volume of 20 μL into white walled 384-well microplates and incubated at 37° C. cAMP modulation was determined using the DiscoverX HitHunter cAMP XS+ assay. For Gs agonist determination, cells were incubated with sample to induce response. For Gi agonist determination, cells were incubated with sample in the presence of EC80 forskolin to induce response. For both conditions, media was aspirated from cells and replaced with 15 μL 2:1 HBSS/10 mM HEPES:cAMP XS+ Ab reagent. Intermediate dilution of sample stocks was performed to generate 4× sample in assay buffer (containing 4×EC80 forskolin in the case of antagonist determination). 5 μL of 4× sample was added to cells and incubated at 37° C. or room temperature (RT) for 30 or 60 min. Final assay vehicle concentration was 1%. For antagonist determination, cells were pre-incubated with sample followed by agonist challenge at the EC80 concentration. Media was aspirated from cells and replaced with 10 μL 1:1 HBSS/HEPES:cAMP XS+ Ab reagent. 5 μL of 4× compound was added to the cells and incubated at 37° C. or RT for 30 min. 5 μL of 4×EC80 agonist was added to the cells and incubated at 37° C. or RT for 30 or 60 min. For Gi coupled GPCRs, EC80 forskolin was included. […] Microplates were read following signal generation with a PerkinElmer Envision™ instrument for chemiluminescent signal detection. Compound activity was analyzed using CBIS data analysis suite (ChemInnovation, CA).

The target in data set [7] is OPRM1 (Homo sapiens, UniProt P35372). As to the kind of experiment: cAMP OPRM1 Agonist. As to conditions: for Emax: OPRM1, read-out: Max response.
Experimental: In vitro pharmacological profiling of compounds was done against 78 functional assays for 47 common off-targets (30) by Eurofins DiscoverX Corporation (Fremont, CA, USA) using their SAFETYscan E/IC50 ELECT service (Cat Ref 87-1003DR, Safety47 Panel Dose Response). […] Compounds were tested in a range of 10 concentrations, following a 3-fold serial dilution, starting from 10 μM.
cAMP Hunter cell lines were expanded from freezer stocks. Prior to testing, cells were seeded in a total volume of 20 μL into white walled 384-well microplates and incubated at 37° C. cAMP modulation was determined using the DiscoverX HitHunter cAMP XS+ assay. For Gs agonist determination, cells were incubated with sample to induce response. For Gi agonist determination, cells were incubated with sample in the presence of EC80 forskolin to induce response. For both conditions, media was aspirated from cells and replaced with 15 μL 2:1 HBSS/10 mM HEPES:cAMP XS+ Ab reagent. Intermediate dilution of sample stocks was performed to generate 4× sample in assay buffer (containing 4×EC80 forskolin in the case of antagonist determination). 5 μL of 4× sample was added to cells and incubated at 37° C. or room temperature (RT) for 30 or 60 min. Final assay vehicle concentration was 1%. For antagonist determination, cells were pre-incubated with sample followed by agonist challenge at the EC80 concentration. Media was aspirated from cells and replaced with 10 μL 1:1 HBSS/HEPES:cAMP XS+ Ab reagent. 5 μL of 4× compound was added to the cells and incubated at 37° C. or RT for 30 min. 5 μL of 4×EC80 agonist was added to the cells and incubated at 37° C. or RT for 30 or 60 min. For Gi coupled GPCRs, EC80 forskolin was included. […] Microplates were read following signal generation with a PerkinElmer Envision™ instrument for chemiluminescent signal detection. Compound activity was analyzed using CBIS data analysis suite (ChemInnovation, CA). For Gs agonist mode assays, percentage activity was calculated using the following equation:
Data set [8] can be described thus: Pharmacokinetic analysis in naïve mice. As to conditions: single i.p. 300 mg/kg, male NMRI mice.
Experimental: as §2, §3, §4
Data set [9] has as its system 47 common off-targets. Nature of the data set: Safety47 panel in vitro pharmacological profiling (overall). As to conditions: for potential off-targets (number): 78 functional assays, 47 off-targets, up to 10 μM.
Experimental: The following assays were performed: (1) GPCR cAMP modulation, (2) calcium mobilization, (3) nuclear hormone receptor assays, (4) KINOMEscan binding assays, (5) ion channel assays, (6) transporter assays and (7) enzymatic assays. Compounds were tested in a range of 10 concentrations, following a 3-fold serial dilution, starting from 10 μM. The assays were performed utilizing the PathHunter enzyme fragment complementation (EFC) technology, FLIPR®-based cellular screening assays, and KINOMEscan kinase binding assays.

Chain of ADRB2 (P07550 whole entry): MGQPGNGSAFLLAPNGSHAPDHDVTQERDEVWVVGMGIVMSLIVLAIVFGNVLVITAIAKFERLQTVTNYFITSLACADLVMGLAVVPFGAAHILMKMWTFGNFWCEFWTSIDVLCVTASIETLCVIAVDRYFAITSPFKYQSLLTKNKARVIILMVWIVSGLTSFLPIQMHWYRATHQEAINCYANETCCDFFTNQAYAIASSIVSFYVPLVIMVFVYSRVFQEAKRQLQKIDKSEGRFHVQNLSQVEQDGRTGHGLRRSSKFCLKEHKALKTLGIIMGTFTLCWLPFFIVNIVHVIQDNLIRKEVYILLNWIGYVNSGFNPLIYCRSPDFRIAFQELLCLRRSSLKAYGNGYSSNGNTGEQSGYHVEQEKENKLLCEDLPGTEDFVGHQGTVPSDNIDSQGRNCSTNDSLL
Chain of OPRM1 (P35372 whole entry): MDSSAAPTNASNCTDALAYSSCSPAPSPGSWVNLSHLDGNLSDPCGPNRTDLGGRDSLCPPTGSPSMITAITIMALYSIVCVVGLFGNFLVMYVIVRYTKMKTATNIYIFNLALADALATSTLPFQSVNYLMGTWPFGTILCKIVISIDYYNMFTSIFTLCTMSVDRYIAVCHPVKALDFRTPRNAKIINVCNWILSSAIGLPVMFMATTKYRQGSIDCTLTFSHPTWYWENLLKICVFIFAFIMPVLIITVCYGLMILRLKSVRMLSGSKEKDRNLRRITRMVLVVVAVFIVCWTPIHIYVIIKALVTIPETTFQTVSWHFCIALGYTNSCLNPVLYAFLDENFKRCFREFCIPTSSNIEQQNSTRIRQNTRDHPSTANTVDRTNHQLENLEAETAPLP
Chain of ADRB1 (P08588 whole entry): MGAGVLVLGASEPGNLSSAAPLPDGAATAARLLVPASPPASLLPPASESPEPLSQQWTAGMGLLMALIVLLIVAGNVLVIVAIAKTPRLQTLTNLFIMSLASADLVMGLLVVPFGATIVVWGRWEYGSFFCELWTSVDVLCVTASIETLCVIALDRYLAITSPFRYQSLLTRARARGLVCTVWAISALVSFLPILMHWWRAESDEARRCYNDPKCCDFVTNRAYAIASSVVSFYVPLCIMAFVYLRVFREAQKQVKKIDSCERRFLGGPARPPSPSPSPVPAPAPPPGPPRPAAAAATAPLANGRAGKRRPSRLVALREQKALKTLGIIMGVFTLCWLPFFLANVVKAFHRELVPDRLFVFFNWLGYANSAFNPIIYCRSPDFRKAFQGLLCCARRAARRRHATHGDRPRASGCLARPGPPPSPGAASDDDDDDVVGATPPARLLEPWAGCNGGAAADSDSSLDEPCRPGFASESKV
Chain of NMDAR (1A/2B) (Q13224 27-1484, other chains not shown): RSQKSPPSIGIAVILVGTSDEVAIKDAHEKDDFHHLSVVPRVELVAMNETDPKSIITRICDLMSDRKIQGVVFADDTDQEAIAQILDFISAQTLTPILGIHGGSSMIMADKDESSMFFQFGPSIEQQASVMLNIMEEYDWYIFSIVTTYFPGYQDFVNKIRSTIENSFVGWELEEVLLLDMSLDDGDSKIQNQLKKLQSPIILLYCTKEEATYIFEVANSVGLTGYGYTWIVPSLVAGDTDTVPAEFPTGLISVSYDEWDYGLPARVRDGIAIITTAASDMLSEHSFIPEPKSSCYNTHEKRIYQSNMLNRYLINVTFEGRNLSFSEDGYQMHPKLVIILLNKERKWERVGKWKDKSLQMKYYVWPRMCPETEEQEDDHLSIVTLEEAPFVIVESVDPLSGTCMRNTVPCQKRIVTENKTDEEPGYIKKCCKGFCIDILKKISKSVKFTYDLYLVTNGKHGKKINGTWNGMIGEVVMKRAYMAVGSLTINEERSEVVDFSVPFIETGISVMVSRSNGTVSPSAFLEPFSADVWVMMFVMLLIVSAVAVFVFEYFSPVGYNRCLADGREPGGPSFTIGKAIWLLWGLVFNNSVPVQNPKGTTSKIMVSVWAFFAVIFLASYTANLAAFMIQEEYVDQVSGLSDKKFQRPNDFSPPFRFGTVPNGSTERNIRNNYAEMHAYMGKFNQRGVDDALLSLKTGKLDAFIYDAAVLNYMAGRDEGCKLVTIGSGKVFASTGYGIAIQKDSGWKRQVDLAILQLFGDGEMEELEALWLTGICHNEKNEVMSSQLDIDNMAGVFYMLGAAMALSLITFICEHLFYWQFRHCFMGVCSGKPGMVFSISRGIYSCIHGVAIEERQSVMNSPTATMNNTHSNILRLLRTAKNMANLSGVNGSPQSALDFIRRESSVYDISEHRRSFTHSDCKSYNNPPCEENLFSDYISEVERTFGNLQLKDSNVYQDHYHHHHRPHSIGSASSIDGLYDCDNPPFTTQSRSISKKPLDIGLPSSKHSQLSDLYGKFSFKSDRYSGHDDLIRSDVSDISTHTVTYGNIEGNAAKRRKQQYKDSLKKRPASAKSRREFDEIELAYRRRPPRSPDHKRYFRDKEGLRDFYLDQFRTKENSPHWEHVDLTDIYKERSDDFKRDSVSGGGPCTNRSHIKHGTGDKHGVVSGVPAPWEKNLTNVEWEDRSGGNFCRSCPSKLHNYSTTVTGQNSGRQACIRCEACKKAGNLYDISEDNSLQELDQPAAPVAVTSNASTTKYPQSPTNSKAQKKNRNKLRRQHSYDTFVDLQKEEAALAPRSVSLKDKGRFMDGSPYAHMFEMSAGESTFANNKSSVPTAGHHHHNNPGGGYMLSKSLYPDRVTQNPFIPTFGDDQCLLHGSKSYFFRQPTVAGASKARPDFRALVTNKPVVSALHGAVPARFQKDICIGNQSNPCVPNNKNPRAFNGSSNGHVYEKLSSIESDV

Consider `CC(C)(C)c1ccc(C#CC(O)c2ccccc2)cc1` (racemic) [Compound 3.3, rac-3-(4-(tert-butyl)phenyl)-1-phenylprop-2-yn-1-ol], for which the EC50 in data set [1], in data set [2], in data set [6] and in data set [7] was > 10 µM each time. Further, the Emax was determined as 0.6% in [1]; 1.9% in data set [2]; 0% in data set [3]; 0% in data set [4]; 0% in [6]; 0% in data set [7]. For the same compound, the IC50 is > 10 µM in data set [3]; > 10 µM in data set [4] (Enzymatic COX2 Inhibitor); 4 to 8 µM in data set [9] (read-out: IC50 values at the potential off-targets, CHRM2, DRD2S, HTR1B, nAChR a4/b2). For the same compound, the figures for the Cmax in [5] (brain) and in data set [5] (plasma) were 96000 ng/g and 62 µM, respectively. Moreover, in [8], the “time at which brain concentration peaked” value is listed as 30 min. The “time at which plasma concentration peaked” value in [8] is recorded as 30 min. Besides, the “potential off-targets (number)” value in [9] was found to be 4.

For `Clc1cccc(C#Cc2n[nH]c3ncccc23)c1` [Compound 10.1, 3-((3-chlorophenyl)ethynyl)-1H-pyrazolo[3,4-b]pyridine], the Emax in data set [1] (cAMP ADRB1 Agonist) was 0%; in [2] (cAMP ADRB2 Agonist), 0.3%; in [3], 0%; in data set [4] (Enzymatic COX2 Inhibitor), 0%; in data set [6], 32.5%; in data set [7] it was 9.9%. Besides, the EC50 was > 10 µM in data set [1] (cAMP ADRB1 Agonist, read-out: RC50, result type EC50); > 10 µM in data set [2] (cAMP ADRB2 Agonist, read-out: RC50, result type EC50); > 10 µM in data set [6]; > 10 µM in data set [7]. Besides, the IC50 in data set [3] and in data set [4] (Enzymatic COX2 Inhibitor) was > 10 µM in each case. For the same compound, the Cmax came to 31000 ng/g in data set [5] (brain) and 27 µM in [5] (plasma). Also, the “time at which brain concentration peaked” value in [8] was found to be 150 min. In addition, the “time at which plasma concentration peaked” value in data set [8] fell in the range of 60 to 240 min. Further, the “potential off-targets (number)” value in data set [9] was “none”.
